Data reported in patent publication US4518611A, “2-Furylbutyrolactone modulation of the immune system in mammals” (priority 1983, dated 1985).
“Also recorded” adds a separate entry of the source.

Tests used:
[1] = system: human lymphocytes; assay: In vitro lymphocyte stimulation assay, human lymphocytes; type: cell-based; design: key to Lymphocyte Stimulation Index, PHA / Lymphocyte Stimulation Index, Con-A: LSI = cpm of mitogen-stimulated group / cpm of control group
Procedure: (§1) The purpose of this assay is to challenge lymphocytes in microcultures with one or more polyclonal mitogens at concentrations that will induce mitogenesis within 72 hours of stimulation.
(§2) In the mouse model, spleens are removed from different strains of mice and the spleen cells are teased free and suspended in RPMI-1640 tissue culture medium at a concentration of usually […]. These cells are dispensed at a concentration of 5.0×10^5 cells per microculture well in a 96 well flat bottom 96 well tissue culture plate. All testing of the compounds of this invention or mitogens are done in replicates of 10. The cells are then treated with PHA, Con-A, specific antigens, or buffer only. If in vitro testing is done, varying concentrations of the compounds of this invention or buffer only are added to the cells as well. After treatment with the mitogens and/or compounds of this invention, the cells are incubated for 72 hours. The response of these cells to mitogens and/or the compounds of this invention is assessed using ^14 C-thymidine labeling on the fourth day at a concentration of 0.01 μCi/well. The labeled cells are harvested using a lymphocyte harvestor and placed onto fibrous paper discs. A scintillation cocktail is added to vials containing the discs and the results are obtained using a LKB-liquid scintillation counter (Model 1216/Rackbeta II). The data is expressed as a ratio of the cpm of the mitogen stimulated group to the control (nonmitogen) treated group=lymphocyte stimulation index (LSI).
(§3) The lymphocyte stimulation assay may be performed directly on spleen cells obtained from various strains of mice not treated with the compounds of this invention or on lymphocytes obtained from human […]. […] Alternatively, the mice may be treated in vivo with the compounds of this invention by intraperitoneal multi-dose schedules, followed by sacrifice and harvesting spleen lymphocytes. These cells are then tested for their response to polyclonal mitogens or specific antigens used to immunize the mice. In this system however, no additional compound is added to the in vitro lymphocyte stimulation assay system.
Lymphocytes isolated from 5 human volunteers are treated in vitro with PHA and Con-A and either 0.1, 1, 10, 50, or 100 μg/well of Cpd. 1, 0.1, 1, 10, 50, or 100 μg/well of AA, or buffer.

[2] = system: spleen lymphocytes; assay: Lymphocyte stimulation assay after in vivo treatment, C57BL/6 mice; settings: 4 days
Procedure: as §1, §2, §3
Two strains of mice, C57BL/6 and BDF1 are treated for seven days with i.p. administration of either 25, 50, 100, 200, or 400 mg/kg of Cpd. 1 or just buffer. This is followed on the eighth day by a lymphocyte stimulation assay.
A comparison is made of the lymphocyte response of C57BL/6 mice treated 4 days with i.p. administration of either 50, 100, 200, 400 or 800 mg/kg of Cpd. 1, 50, 100, 200, 400 or 800 mg/kg of ascorbic acid (AA), or just buffer. This is followed on the fifth day by a lymphocyte stimulation assay.
Two strains of mice, C57BL/6 and BALB/c, are treated 4 days with i.p. administration of either 50, 100, 200, or 400 mg/kg of Cpd. 1, or just buffer. This is followed on the fifth day by a lymphocyte stimulation assay.
C57BL/6 mice were treated with four daily i.p. doses of either 50, 100, 200, or 400 mg/kg of Cpd. 1 or just buffer. On the fifth day a lymphocyte stimulation assay was performed.
Mice of the C57BL/6 strain were tested with i.p. administration of either 100, 200, 400 or 600 mg/kg of Cpd. 1 or just buffer. This was followed by removal of spleens and treatment of lymphocytes therein with mitogens PHA and Con-A.
The compound of Example 2, Cpd. 2, was tested in vivo by using C57BL/6 mice and treating them with […] or just buffer for four consecutive days by the i.p. route. On the fifth day a lymphocyte stimulation assay was performed.

[3] = system: spleen lymphocytes; assay: In vitro lymphocyte stimulation assay, C57BL/6 spleen lymphocytes; type: cell-based, mouse
Procedure: as §1, §2, §3
An in vitro lymphocyte stimulation assay is performed directly on normal spleen lymphocytes removed from five normal C57BL/6 mice, using concentrations of Cpd. […] Following three days of incubation the assay is completed.
An in vitro lymphocyte stimulation assay was performed using spleen lymphocytes from normal C57BL/6 mice. The lymphocytes were treated with either 1, 5, 10, 50 or 100 μg/well of Cpd. 1 or buffer.
Cpd. 2 was tested using normal spleen lymphocytes from C57BL/6 mice. A lymphocyte stimulation assay was conducted using either 1, 5, 10, 50, or 100 μg/well […] or just buffer.
Spleen cells from C57BL/6 mice were treated, in vitro, with the crystallizing reagents, succinic acid and succinimide. Since these compounds are spontaneously released from the molecular complex in solution at a molar ratio of 2 moles of Cpds. 1, 2, or 3 per mole of the crystalline reagent, these reagents were treated in the lymphocyte stimulation assay at proper molar concentrations.
The compound of example 3, Cpd. 3, was used to treat C57BL/6 spleen lymphocytes in vitro. The lymphocytes were treated with either 1, 5, 10, 50, or 100 μg/well of Cpd. 3 or just buffer and then a lymphocyte stimulation assay was performed.

[4] = system: L-1210 leukemia cells; assay: Treatment of L-1210 leukemia in BDF1 mice (T/C ratios); type: in vivo, mouse; settings: 20 mg/kg, seven days
Source text: Mice of the BDF1 strain are given in i.p. inoculation of 10^6 L-1210 leukemia cells on day 0. Twenty-four hours later, groups of 7 mice each are started on a nine day treatment regimen of various doses of the compounds of this invention. The experiment is continued according to the guidelines provided under the National Cancer Institute protocol for screening new anti-cancer agents and T/C ratios (median or mean survival time of treated groups over median or mean survival time of controls) are calculated. A T/C value ≥1.25 (or 125%) is considered significant anticancer activity.
Mice of the BDF1 strain, inoculated with L-1210 leukemia cells, are treated for seven days with either 25, 50, 100, 200 or 400 mg/kg of Cpd. 1 or just buffer. The National Cancer Institute protocol for screening new anti-cancer agents is followed and T/C ratios are calculated.
Mice of the BDF1 strain, inoculated with L-1210 leukemia cells, are treated for seven days with either 100 mg/kg of Cpd. 1, 20 mg/kg of 5-flourouracil (5-FU), a known anti-cancer agent, or just buffer. The National Cancer Institute protocol for screening new anti-cancer agents is followed and T/C ratios are calculated.

## O=C1O[C@H]([C@@H](O)CO)C(O)=C1O [AA, ascorbic acid, reference compound]
[1]; 0.1 μg/well
  Lymphocyte Stimulation Index, Con-A: 24.37
  Lymphocyte Stimulation Index, PHA: 38.29
[1]; 1.0 μg/well
  Lymphocyte Stimulation Index, Con-A: 24.76
  Lymphocyte Stimulation Index, PHA: 34.69
[1]; 10 μg/well
  Lymphocyte Stimulation Index, Con-A: 27.35
  Lymphocyte Stimulation Index, PHA: 35.10
[1]; 50 μg/well
  Lymphocyte Stimulation Index, Con-A: 23.31
  Lymphocyte Stimulation Index, PHA: 35.93
[1]; 100 μg/well
  Lymphocyte Stimulation Index, Con-A: 25.18
  Lymphocyte Stimulation Index, PHA: 34.23
[1]; in vitro, PHA and Con-A
  effect on lymphocyte response (in words): no significant proliferative or anti-proliferative effect
[2]; 50 mg/kg i.p.
  Lymphocyte Stimulation Index, Con-A: 25.5
  Lymphocyte Stimulation Index, Control (no mitogen): .56
  Lymphocyte Stimulation Index, PHA: 17.1
[2]; 100 mg/kg i.p.
  Lymphocyte Stimulation Index, Con-A: 19.8
  Lymphocyte Stimulation Index, Control (no mitogen): 1.8
  Lymphocyte Stimulation Index, PHA: 17.1
[2]; 200 mg/kg i.p.
  Lymphocyte Stimulation Index, Con-A: 21.1
  Lymphocyte Stimulation Index, Control (no mitogen): 1.3
  Lymphocyte Stimulation Index, PHA: 10.0
[2]; 400 mg/kg i.p.
  Lymphocyte Stimulation Index, Con-A: 17.8
  Lymphocyte Stimulation Index, Control (no mitogen): 1.3
  Lymphocyte Stimulation Index, PHA: 14.3
[2]; 800 mg/kg i.p.
  Lymphocyte Stimulation Index, Con-A: 23.9
  Lymphocyte Stimulation Index, Control (no mitogen): .50
  Lymphocyte Stimulation Index, PHA: 12.1
[2]; i.p., Con-A
  effect on Con-A response (in words): a single stimulation of proliferation did occur at 50 mg/kg
[2]; i.p., PHA
  effect on PHA response (in words): No statistically significant measurable effect

## CN1C(=O)CCC1=O.Cc1ccc(C2(O)C(=O)OC3C(O)COC32O)o1.Cc1ccc(C2(O)C(=O)OC3C(O)COC32O)o1 (centres unmarked) [Cpd. 3, 2-furylbutyrolactone:N-methylsuccinimide]
[3]; 1 μg/well
  Lymphocyte Stimulation Index, Control (no mitogen): .60
[3]; 5 μg/well
  Lymphocyte Stimulation Index, Control (no mitogen): .64
[3]; 10 μg/well
  Lymphocyte Stimulation Index, Control (no mitogen): .47
  Lymphocyte Stimulation Index, PHA: 24.0
[3]; 50 μg/well
  Lymphocyte Stimulation Index, Control (no mitogen): .27
[3]; 100 μg/well
  Lymphocyte Stimulation Index, Control (no mitogen): .25
[3]; in vitro, Con-A
  effect on Con-A response (in words): The 50 μg/well dose slightly stimulated the response to Con-A; also recorded: the 100 μg/well dose suppressed the response
[3]; in vitro, PHA
  effect on PHA response (in words): The 10 μg/well dose of Cpd. 3 significantly stimulated the response to PHA; also recorded: the 50 and 100 μg/well doses suppressed the response

## O=C1CCC(=O)N1 [Succinimide, succinimide, reference compound]
[3]; 13.92 μg/well
  Lymphocyte Stimulation Index, Control (no mitogen): 1.4
[3]; in vitro
  effect on PHA and Con-A mitogenesis (in words): no significant suppressive or enhancing effect

## O=c1[nH]cc(F)c(=O)[nH]1 [5-FU, 5-flourouracil, reference compound]
[4]
  Median Survival Time: 30
  T/C: 1.50

## O=C(O)CCC(=O)O [Succinic Acid, succinic acid, reference compound]
[3]; in vitro
  effect on PHA and Con-A mitogenesis (in words): a decrease in PHA and Con-A mitogenesis with increased succinic acid dosage
